Measured values published in PubChem BioAssay AID1919013 (Molecular Pharmacology Branch, DTP, NCI, 2023).

System: LG0703-F498-PDC complex spheroid growth
Experiment: Anticancer human tumor LG0703-F498-PDC patient-derived lung adenocarcinoma cell line growth inhibition [AhR]
Conditions: for IC50: curve of first compound; for viability, T/C: stronger effect = lower value
Method in brief: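 Complex tumor spheroids co-cultured with HUVEC and human MSC stroma; AhR antagonists tested in combination with standard-of-care and investigational agents. Top concentration at or near clinical Cmax (else 10 microM), half-log dilutions; growth expressed as percent test/control.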
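Note: luminescence taken as a proxy for viable cell amount.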
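Throughout, for viability, T/C: percent of DMSO vehicle control where 100% means growth equal to vehicle.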

CCc1c2c(nc3ccc(O)cc13)-c1cc3c(c(=O)n1C2)COC(=O)[C@]3(O)CC + Cc1ccccc1N=Nc1ccc(NC(=O)c2ccnn2C)c(C)c1 showed an IC50 (second compound 0.1 µM) of 49.4 nM, an IC50 (second compound 0.316 µM) of 43.3 nM and an IC50 (second compound 1 µM) of 30.7 nM. The IC50 (second compound 3.16 µM) was 23.9 nM, the IC50 (second compound 10 µM) was 37.1 nM and the viability, T/C (second compound 0.1 µM, first compound 0.000949 µM) was 79.1%. For the same molecule, the viability, T/C (second compound 0.1 µM, first compound 0.003 µM) was 92.9%, the viability, T/C (second compound 0.1 µM, first compound 0.00949 µM) was 77.1% and the viability, T/C (second compound 0.1 µM, first compound 0.03 µM) was 56.8%. For the same molecule, the viability, T/C (second compound 0.1 µM, first compound 0.0949 µM) was 41.5%, the viability, T/C (second compound 0.1 µM, first compound 0.3 µM) was 29.2% and the viability, T/C (second compound 0.316 µM, first compound 0.000949 µM) was 98.5%. The viability, T/C (second compound 0.316 µM, first compound 0.003 µM) was 94.6%, the viability, T/C (second compound 0.316 µM, first compound 0.00949 µM) was 75.8% and the viability, T/C (second compound 0.316 µM, first compound 0.03 µM) was 57.9%. The viability, T/C (second compound 0.316 µM, first compound 0.0949 µM) was 35.6%, the viability, T/C (second compound 0.316 µM, first compound 0.3 µM) was 24.9% and the viability, T/C (second compound 1 µM, first compound 0.000949 µM) was 86.5%. It also gave a viability, T/C (second compound 1 µM, first compound 0.003 µM) of 79.7%, a viability, T/C (second compound 1 µM, first compound 0.00949 µM) of 69.2% and a viability, T/C (second compound 1 µM, first compound 0.03 µM) of 48.4%. It also gave a viability, T/C (second compound 1 µM, first compound 0.0949 µM) of 36.3%, a viability, T/C (second compound 1 µM, first compound 0.3 µM) of 24.5% and a viability, T/C (second compound 3.16 µM, first compound 0.000949 µM) of 93.9%. It also gave a viability, T/C (second compound 3.16 µM, first compound 0.003 µM) of 83.3%, a viability, T/C (second compound 3.16 µM, first compound 0.00949 µM) of 64.3% and a viability, T/C (second compound 3.16 µM, first compound 0.03 µM) of 45%. The viability, T/C (second compound 3.16 µM, first compound 0.0949 µM) was 34.1%, the viability, T/C (second compound 3.16 µM, first compound 0.3 µM) was 21.7% and the viability, T/C (second compound 10 µM, first compound 0.000949 µM) was 65.8%. It also gave a viability, T/C (second compound 10 µM, first compound 0.003 µM) of 79%, a viability, T/C (second compound 10 µM, first compound 0.00949 µM) of 69.1% and a viability, T/C (second compound 10 µM, first compound 0.03 µM) of 51.7%. It also gave a viability, T/C (second compound 10 µM, first compound 0.0949 µM) of 35.8% and a viability, T/C (second compound 10 µM, first compound 0.3 µM) of 24.7%.
For Cn1ncnc1C1c2n[nH]c(=O)c3cc(F)cc(c23)NC1c1ccc(F)cc1 (stereo not given) + Cc1ccccc1N=Nc1ccc(NC(=O)c2ccnn2C)c(C)c1, the IC50 (second compound 0.1 µM) was over 100 nM, the IC50 (second compound 0.316 µM) was over 100 nM and the IC50 (second compound 1 µM) was over 100 nM. It also gave an IC50 (second compound 3.16 µM) of over 100 nM, an IC50 (second compound 10 µM) of over 100 nM and a viability, T/C (second compound 0.1 µM, first compound 0.000316 µM) of 97.2%. For the same molecule, the viability, T/C (second compound 0.1 µM, first compound 0.001 µM) was 88.6%, the viability, T/C (second compound 0.1 µM, first compound 0.00316 µM) was 103% and the viability, T/C (second compound 0.1 µM, first compound 0.01 µM) was 95.2%. The viability, T/C (second compound 0.1 µM, first compound 0.0316 µM) was 104%, the viability, T/C (second compound 0.1 µM, first compound 0.1 µM) was 89.7% and the viability, T/C (second compound 0.316 µM, first compound 0.000316 µM) was 93.8%. For the same molecule, the viability, T/C (second compound 0.316 µM, first compound 0.001 µM) was 98.1%, the viability, T/C (second compound 0.316 µM, first compound 0.00316 µM) was 92.6% and the viability, T/C (second compound 0.316 µM, first compound 0.01 µM) was 94.3%. The viability, T/C (second compound 0.316 µM, first compound 0.0316 µM) was 85.5%, the viability, T/C (second compound 0.316 µM, first compound 0.1 µM) was 88.1% and the viability, T/C (second compound 1 µM, first compound 0.000316 µM) was 93.5%. The viability, T/C (second compound 1 µM, first compound 0.001 µM) was 89.4%, the viability, T/C (second compound 1 µM, first compound 0.00316 µM) was 83.3% and the viability, T/C (second compound 1 µM, first compound 0.01 µM) was 79.6%. For the same molecule, the viability, T/C (second compound 1 µM, first compound 0.0316 µM) was 95.9%, the viability, T/C (second compound 1 µM, first compound 0.1 µM) was 83.1% and the viability, T/C (second compound 3.16 µM, first compound 0.000316 µM) was 84.9%. It also gave a viability, T/C (second compound 3.16 µM, first compound 0.001 µM) of 79.9%, a viability, T/C (second compound 3.16 µM, first compound 0.00316 µM) of 88% and a viability, T/C (second compound 3.16 µM, first compound 0.01 µM) of 78.3%. It also gave a viability, T/C (second compound 3.16 µM, first compound 0.0316 µM) of 79.7%, a viability, T/C (second compound 3.16 µM, first compound 0.1 µM) of 75.9% and a viability, T/C (second compound 10 µM, first compound 0.000316 µM) of 84.2%. It also gave a viability, T/C (second compound 10 µM, first compound 0.001 µM) of 85.2%, a viability, T/C (second compound 10 µM, first compound 0.00316 µM) of 77.9% and a viability, T/C (second compound 10 µM, first compound 0.01 µM) of 85.9%. The viability, T/C (second compound 10 µM, first compound 0.0316 µM) was 79.4% and the viability, T/C (second compound 10 µM, first compound 0.1 µM) was 79.5%.
